Data as given in article PMC11480511 (Scientific Reports, 2024).

Columns and labels:
OVCAR-4 = test: NCI single-dose growth inhibition screen; type: cell-based; conditions: Homo sapiens; Ovarian Cancer OVCAR-4; single dose 10^−5 M
topoisomerase IIβ = biological target: T1, topoisomerase IIβ (Homo sapiens, UniProt Q02880); test: Topoisomerase II inhibition, human DNA topoisomerase Elisa kit; type: biochemical; conditions: ± SEM; read-out: Topoisomerase II IC50 µM ± SEM
T1 construct: purchased
Description: Two folds of serial dilution was accomplished after standards and the tested compounds were dissolved in sample diluent. Horseradish peroxidase (HRP-avidin) and biotin-conjugated antibody were diluted 10 times each. Each well received 100 µL of each concentration of the standard or test chemicals, which were then added and incubated at 37 °C for 60 min. […] The microtiter plate was rinsed three times and given room to aspirate. After that, the plate was incubated at 37 °C for 60 min with 100 µL of HRP-avidin solution added to each well. After that, the plate was aspirated and cleaned 5 times. Each well received 90 µL of TMB substrate, and the plate was incubated for 30 min. at 37 °C in a light-protected environment. Finally, stop solution (50 µL) was loaded, and within 5 min, the absorbance at 450 nm was measured spectrophotometrically.
Topoisomerase enzyme assay
Topoisomerase I and II inhibitory activity […]
topoisomerase IIβ inhibitory activity utilizing the human DNA topoisomerase Elisa kit.
Standards and the tested compound were dissolved in sample diluent and 2 folds serial dilution was achieved. Biotin-conjugated antibody and avidin conjugated Horseradish Peroxidase (HRP-avidin) were diluted to 10 folds. 100 μL of each concentration of standard or test compound were added to each well. Incubate at 37 °C for 1 h. The liquid in each well was removed. 10 0 μL of Biotin-conjugated antibody solution was added to each well followed by incubation for 1 h at 37 °C. The microtiter plate was allowed to aspirate and washed 3 times. 100 μL of avidin conjugated Horseradish Peroxidase (HRP -avidin) solution was added to each well and the plate was incubated for 1 h at 37 °C. The plate was aspirated and washed 5 times. 90 μL of TMB substrate were added to each well and the plate was incubated for 30 min at 37 °C and protected from light. 50 μL stop so lution was added. The absorbance was measured spectrophotometrically within 5 min at 450 nm .

TK-10 = test: NCI single-dose growth inhibition screen; type: cell-based; conditions: Homo sapiens; Renal Cancer TK-10; single dose 10^−5 M
HOP-92 = test: NCI single-dose growth inhibition screen; type: cell-based; conditions: Homo sapiens; Non-Small Cell Lung Cancer HOP-92; single dose 10^−5 M
NCI-H322M = test: NCI single-dose growth inhibition screen; type: cell-based; conditions: Homo sapiens; Non-Small Cell Lung Cancer NCI-H322M; single dose 10^−5 M
SK-MEL-5 = test: NCI single-dose growth inhibition screen; type: cell-based, human; conditions: single dose 10^−5 M; for inhibition at 10 µM: Homo sapiens, SK-MEL-5, Melanoma SK-MEL-5
PC-3 = test: NCI single-dose growth inhibition screen; type: cell-based; conditions: Homo sapiens; Prostate Cancer PC-3; single dose 10^−5 M
SNB-75 = test: NCI single-dose growth inhibition screen; type: cell-based, human; conditions: single dose 10^−5 M; for inhibition at 10 µM: Homo sapiens, SNB-75, CNS Cancer SNB-75
IGROV1 = test: NCI single-dose growth inhibition screen; type: cell-based; conditions: Homo sapiens, IGROV-1; Ovarian Cancer IGROV1; single dose 10^−5 M
ACHN = test: NCI single-dose growth inhibition screen; type: cell-based; conditions: Homo sapiens; Renal Cancer ACHN; single dose 10^−5 M
T-47D = test: NCI single-dose growth inhibition screen; type: cell-based; conditions: Homo sapiens, T47D; Breast Cancer T-47D; single dose 10^−5 M
CCRF-CEM = test: NCI single-dose growth inhibition screen; type: cell-based; conditions: Homo sapiens; Leukemia CCRF-CEM; single dose 10^−5 M
MDA-MB231 = test: NCI single-dose growth inhibition screen; type: cell-based; conditions: Homo sapiens, MDA-MB-231; Breast Cancer MDA-MB231; single dose 10^−5 M
HOP-62 = test: NCI single-dose growth inhibition screen; type: cell-based; conditions: Homo sapiens; Non-Small Cell Lung Cancer HOP-62; single dose 10^−5 M
MOLT-4 = test: NCI single-dose growth inhibition screen; type: cell-based; conditions: Homo sapiens; Leukemia MOLT-4; single dose 10^−5 M
DU-145 = test: NCI single-dose growth inhibition screen; type: cell-based; conditions: Homo sapiens; Prostate Cancer DU-145; single dose 10^−5 M
SK-MEL-2 = test: NCI single-dose growth inhibition screen; type: cell-based; conditions: Homo sapiens; Melanoma SK-MEL-2; single dose 10^−5 M
MDA-MB-435 = test: NCI single-dose growth inhibition screen; type: cell-based; conditions: Homo sapiens; Melanoma MDA-MB-435; single dose 10^−5 M
HCT-116 = test: NCI single-dose growth inhibition screen; type: cell-based; conditions: Homo sapiens; Colon Cancer HCT-116; single dose 10^−5 M
UACC-62 = test: NCI single-dose growth inhibition screen; type: cell-based; conditions: Homo sapiens; Melanoma UACC-62; single dose 10^−5 M
UACC-257 = test: NCI single-dose growth inhibition screen; type: cell-based; conditions: Homo sapiens; Melanoma UACC-257; single dose 10^−5 M
K-562 = test: NCI single-dose growth inhibition screen; type: cell-based; conditions: Homo sapiens, K562; Leukemia K-562; single dose 10^−5 M
RPMI-8226 = test: NCI single-dose growth inhibition screen; type: cell-based; conditions: Homo sapiens; Leukemia RPMI-8226; single dose 10^−5 M

T1 sequence (Q02880 whole entry): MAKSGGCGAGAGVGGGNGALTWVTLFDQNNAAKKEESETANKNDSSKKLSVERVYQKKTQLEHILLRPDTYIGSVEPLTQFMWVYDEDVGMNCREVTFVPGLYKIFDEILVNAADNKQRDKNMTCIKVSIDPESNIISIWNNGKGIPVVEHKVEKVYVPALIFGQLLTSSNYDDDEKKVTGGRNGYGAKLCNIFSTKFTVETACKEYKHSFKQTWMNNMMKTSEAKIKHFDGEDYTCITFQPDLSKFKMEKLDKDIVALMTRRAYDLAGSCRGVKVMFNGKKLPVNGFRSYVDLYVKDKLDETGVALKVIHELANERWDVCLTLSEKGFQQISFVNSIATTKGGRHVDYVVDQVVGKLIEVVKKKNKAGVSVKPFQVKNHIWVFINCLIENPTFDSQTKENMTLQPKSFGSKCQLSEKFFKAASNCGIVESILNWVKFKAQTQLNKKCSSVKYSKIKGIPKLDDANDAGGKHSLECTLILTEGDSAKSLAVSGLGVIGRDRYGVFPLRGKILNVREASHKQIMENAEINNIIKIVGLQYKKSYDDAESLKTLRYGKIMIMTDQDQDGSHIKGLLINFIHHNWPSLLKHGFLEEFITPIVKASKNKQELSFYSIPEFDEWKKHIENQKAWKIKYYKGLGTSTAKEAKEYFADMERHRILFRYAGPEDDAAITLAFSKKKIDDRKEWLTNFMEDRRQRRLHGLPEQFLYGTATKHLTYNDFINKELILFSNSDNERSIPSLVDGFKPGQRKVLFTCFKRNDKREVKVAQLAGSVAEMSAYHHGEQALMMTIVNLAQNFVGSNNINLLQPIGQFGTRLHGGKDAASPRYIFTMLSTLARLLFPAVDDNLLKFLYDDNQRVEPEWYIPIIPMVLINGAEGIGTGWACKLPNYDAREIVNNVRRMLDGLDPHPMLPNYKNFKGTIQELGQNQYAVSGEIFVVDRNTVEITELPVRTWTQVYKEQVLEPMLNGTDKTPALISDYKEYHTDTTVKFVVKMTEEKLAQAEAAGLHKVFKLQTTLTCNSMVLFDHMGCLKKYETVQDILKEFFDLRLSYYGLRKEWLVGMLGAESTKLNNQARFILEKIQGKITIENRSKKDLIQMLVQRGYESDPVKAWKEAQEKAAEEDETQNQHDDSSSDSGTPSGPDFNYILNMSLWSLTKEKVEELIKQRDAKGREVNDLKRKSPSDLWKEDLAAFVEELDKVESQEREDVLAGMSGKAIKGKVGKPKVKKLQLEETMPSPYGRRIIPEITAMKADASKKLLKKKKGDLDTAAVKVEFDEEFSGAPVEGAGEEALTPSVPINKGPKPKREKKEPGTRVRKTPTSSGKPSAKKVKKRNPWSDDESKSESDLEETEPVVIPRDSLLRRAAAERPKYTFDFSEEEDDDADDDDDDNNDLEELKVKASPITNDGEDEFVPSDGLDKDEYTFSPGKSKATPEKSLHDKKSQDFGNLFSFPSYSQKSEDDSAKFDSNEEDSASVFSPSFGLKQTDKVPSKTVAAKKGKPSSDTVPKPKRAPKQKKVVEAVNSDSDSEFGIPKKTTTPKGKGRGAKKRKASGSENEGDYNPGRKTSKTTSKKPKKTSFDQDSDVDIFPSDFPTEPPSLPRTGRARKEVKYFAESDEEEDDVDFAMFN

| SMILES | inhibition at 10 µM (OVCAR-4) | IC50 (topoisomerase IIβ) | inhibition at 10 µM (TK-10) | inhibition at 10 µM (HOP-92) | inhibition at 10 µM (NCI-H322M) | inhibition at 10 µM (SK-MEL-5) | inhibition at 10 µM (PC-3) | inhibition at 10 µM (SNB-75) | inhibition at 10 µM (IGROV1) | inhibition at 10 µM (ACHN) | inhibition at 10 µM (T-47D) | inhibition at 10 µM (MDA-MB231) | inhibition at 10 µM (HOP-62) | inhibition at 10 µM (MOLT-4) | inhibition at 10 µM (DU-145) | inhibition at 10 µM (SK-MEL-2) | inhibition at 10 µM (MDA-MB-435) | inhibition at 10 µM (HCT-116) | inhibition at 10 µM (UACC-62) | inhibition at 10 µM (UACC-257) | also measured |
| --- | --- | --- | --- | --- | --- | --- | --- | --- | --- | --- | --- | --- | --- | --- | --- | --- | --- | --- | --- | --- | --- |
| O=C(O)c1cn(C2CC2)c2cc(N3CCN(C(=O)CCCN4C(=O)SC(=Cc5ccccc5)C4=O)CC3)c(F)cc2c1=O [3a, 7-[4-[4-[5-benzylidene-2,4-dioxo-thiazolidin-3-yl]butanoyl]piperazin-1-yl]-1-cyclopropyl-6-fluoro-4-oxo-quinoline-3-carboxylic acid] | 2.5% | 35.6 ± 1.94 µM | < 0% | < 0% | 9.4% | 24.6% | < 0% | 29.1% | 8.5% | 14.5% | 8.1% | 25.2% | < 0% | 12.6% | < 0% | 10.1% | 7.8% | 19.3% | 28.6% | 21.1% | inhibition at 10 µM (CCRF-CEM): 9.8%; inhibition at 10 µM (K-562): 22.5%; inhibition at 10 µM (RPMI-8226): 11.4% |
| O=C(O)c1cn(C2CC2)c2cc(N3CCN(C(=O)CCCN4C(=O)S/C(=C\c5ccc(F)cc5)C4=O)CC3)c(F)cc2c1=O [3i] | 0.5% | 15 ± 0.81 µM | 4.7% | 5.7% | 11.5% | 5.5% | < 0% | 16.5% | 1.3% | 4.6% | 5% | 26.4% | 2.9% | < 0% | < 0% | < 0% | 1.6% | 4.5% | 19.3% | 12.3% | inhibition at 10 µM (CCRF-CEM): 4.2%; inhibition at 10 µM (K-562): < 0%; inhibition at 10 µM (RPMI-8226): < 0% |
| O=C(O)c1cn(C2CC2)c2cc(N3CCN(C(=O)CCCN4C(=O)SC(=Cc5cccc6ccccc56)C4=O)CC3)c(F)cc2c1=O [3j, 1-cyclopropyl-6-fluoro-7-[4-[4-[5-(1-naphthylmethylene)-2,4-dioxo-thiazolidin-3-yl]butanoyl]piperazin-1-yl]-4-oxo-quinoline-3-carboxylic acid] | 16.4% | 39.8 ± 2.17 µM | < 0% | 13.3% | 26.6% | 46.1% | < 0% | 28.4% | 25.9% | 11.5% | 7.5% | 25.2% | 15.1% | 17.5% | 21.9% | < 0% | 12.8% | 10.6% | 20.4% | 19.1% | Growth Inhibition (%) (SK-MEL-5; Melanoma SK-MEL-5): 46.1%; inhibition at 10 µM (CCRF-CEM): < 0%; inhibition at 10 µM (K-562): 10.9%; inhibition at 10 µM (RPMI-8226): 6.1% |
| O=C(O)c1cn(C2CC2)c2cc(N3CCN(C(=O)CCCN4C(=O)S/C(=C\c5ccc([N+](=O)[O-])cc5)C4=O)CC3)c(F)cc2c1=O [3k] | 13.7% | 18.7 ± 1.02 µM | 33.5% | 0.2% | < 0% | 0.8% | < 0% | 42.5% | 15.9% | 0.1% | < 0% | 11.2% | 19.7% | < 0% | 7% | < 0% | < 0% | < 0% | 2% | < 0% | Growth Inhibition (%) (SNB-75; CNS Cancer SNB-75): 42.5%; inhibition at 10 µM (K-562): < 0%; inhibition at 10 µM (RPMI-8226): 8.7% |
